These results are taken from patent US20150232420A1, “TRANSGLUTAMINASE TG2 INHIBITORS, PHARMACEUTICAL COMPOSITIONS, AND METHODS OF USE THEREOF” (priority 2012, published 2015).

A value given as a limit tells only on which side of the number the result lay.

This assay has as its target T1, human TG2 (Homo sapiens, UniProt P21980).
T1 sequence (P21980 1-687): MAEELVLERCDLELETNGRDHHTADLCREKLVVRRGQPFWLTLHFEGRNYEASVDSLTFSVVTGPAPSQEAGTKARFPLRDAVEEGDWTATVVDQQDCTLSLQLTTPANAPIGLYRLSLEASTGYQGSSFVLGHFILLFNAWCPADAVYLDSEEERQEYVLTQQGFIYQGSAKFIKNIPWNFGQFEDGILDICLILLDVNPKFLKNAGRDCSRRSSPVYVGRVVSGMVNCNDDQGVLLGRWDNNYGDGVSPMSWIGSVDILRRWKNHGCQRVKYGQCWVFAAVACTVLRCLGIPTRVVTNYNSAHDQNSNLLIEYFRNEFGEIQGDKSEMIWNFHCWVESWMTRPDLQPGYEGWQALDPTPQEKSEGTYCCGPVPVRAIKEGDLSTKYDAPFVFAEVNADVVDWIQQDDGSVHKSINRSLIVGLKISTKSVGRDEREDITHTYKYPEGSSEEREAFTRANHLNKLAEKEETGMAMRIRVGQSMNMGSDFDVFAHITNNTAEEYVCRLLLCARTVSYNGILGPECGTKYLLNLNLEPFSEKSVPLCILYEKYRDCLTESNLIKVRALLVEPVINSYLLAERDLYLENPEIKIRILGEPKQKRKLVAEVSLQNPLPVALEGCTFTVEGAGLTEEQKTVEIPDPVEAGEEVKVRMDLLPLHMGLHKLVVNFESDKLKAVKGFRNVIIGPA
Put plainly: fluorescent screening assay for human TG2. The assay is classed as biochemical. Conditions: Table 7; 20 nM TG2, 37° C.; read-out: IC50. The protocol:
The fluorescent screening assay for human TG2 was performed as described herein: Assay conditions were 20 nM TG2, 8 μM N,N-dimethylated Casein (NMC) and 16 μM K×D (used for all transglutaminase assays) in 25 mM Hepes, pH 7.4, 250 mM NaCl, 2 mM MgCl2, 0.5 mM CaCl2, 0.2 mM DTT, 0.05% Pluronic F-127 at 37° C. A time point was taken with a microplate reader (Safire or Ultra, Tecan; ex: 350 nm, em: 535 nm) every 3 minutes for up to 2 hours and the initial linear reaction progress was used to determine the reaction velocity as a measure for enzyme activity. Assay conditions were identical for human TG6 and similar for human TG1 and mouse TG2 apart from enzyme concentration (mTG2 at 5 nM; TG1 at 10 nM) and CaCl2 concentration (0.2 mM for mTG2; 0.05 mM for TG1). Factor XIIIa was activated using 0.1 μg/μl thrombin (Sigma) in 35 mM Tris pH 8.0 for 20 min at 30° C. and the transamidation reaction was performed with 20 nM Factor XIIIa in 50 mM Tris pH 8.0, 1.25 mM CaCl2, 0.05% Pluronic, 0.2 mM DTT. TG3 was activated with 0.02 μg/μl thrombin under the same conditions as Factor XIIIa and assay conditions were 10 nM TG3 in 50 mM Hepes, pH 8, 20 mM CaCl2, 0.2 mM DTT, 0.05% Pluronic F-127.

The IC50 is the concentration at which inhibition is half-maximal. Turning to `C=CC(=O)NCCCC[C@H](NC(=O)OCc1ccccc1)C(=O)N1CCN(C)CC1` [benzyl N-[(2S)-1-(4-methylpiperazin-1-yl)-1-oxo-6-(prop-2-enamido)hexan-2-yl]carbamate], the IC50 lay within 100 to 1000 nM. Consider `C=CC(=O)NCCCC[C@H](NC(=O)OCc1ccccc1C(F)(F)F)C(=O)O` [(2S)-6-(prop-2-enamido)-2-[({[2-(trifluoromethyl)phenyl]methoxy}carbonyl)amino]hexanoic acid], for which the IC50 is 1000 to 100000 nM. The value for `C=CC(=O)NCCCC[C@H](NC(=O)OC(C)(C)C)C(=O)N1CCN(c2cccc(C)n2)CC1` [tert-butyl N-[(2S)-1-[4-(6-methylpyridin-2-yl)piperazin-1-yl]-1-oxo-6-(prop-2-enamido)hexan-2-yl]carbamate] was 100 to 1000 nM; that for `C=CC(=O)NCCCC[C@H](NC(=O)OCc1ccccc1)C(=O)N1CCN(c2ccccn2)CC1` [benzyl N-[(2S)-1-oxo-6-(prop-2-enamido)-1-[4-(pyridin-2-yl)piperazin-1-yl]hexan-2-yl]carbamate] was 100 to 1000 nM; that for `C=CC(=O)NCCCC[C@H](NC(=O)OCc1ccc(C(F)(F)F)cc1)C(=O)O` [(2S)-6-(prop-2-enamido)-2-[({[4-(trifluoromethyl)phenyl]methoxy}carbonyl)amino]hexanoic acid] was 1000 to 100000 nM. `C=CC(=O)NCCCC[C@H](NC(=O)OCc1cccc(C(F)(F)F)c1)C(=O)O` [(2S)-6-(prop-2-enamido)-2-[({[3-(trifluoromethyl)phenyl]methoxy}carbonyl)amino]hexanoic acid]: the IC50 was 1000 to 100000 nM. The value for `C=CC(=O)NCCCC[C@H](NC(=O)OCc1ccccc1)C(=O)N1CCN(C(=O)C2CC2)CC1` [benzyl N-[(2S)-1-(4-cyclopropanecarbonylpiperazin-1-yl)-1-oxo-6-(prop-2-enamido)hexan-2-yl]carbamate] was 100 to 1000 nM. The value for `C=CC(=O)NCCCC[C@H](NC(=O)OCC1c2ccccc2-c2ccccc21)C(=O)O` [(2S)-2-{[(9H-fluoren-9-ylmethoxy)carbonyl]amino}-6-(prop-2-enamido)hexanoic acid] was 1000 to 100000 nM.

As for `C=CC(=O)NCCCC[C@H](NC(=O)OCc1ccccc1)C(=O)N1CCN(C(=O)N2CCOCC2)CC1` [benzyl N-[(2S)-1-[4-(morpholine-4-carbonyl)piperazin-1-yl]-1-oxo-6-(prop-2-enamido)hexan-2-yl]carbamate], the IC50 was in the range of 100 to 1000 nM. The value for `C=CC(=O)NCCCC[C@H](NC(=O)OCc1ccccc1)C(=O)N1CCC(F)(F)CC1` [benzyl N-[(2S)-1-(4,4-difluoropiperidin-1-yl)-1-oxo-6-(prop-2-enamido)hexan-2-yl]carbamate] was 100 to 1000 nM; that for `C=CC(=O)NCCCC[C@H](NC(C)=O)C(=O)N1CCN(c2cccc(C)n2)CC1` [N-[(5S)-5-acetamido-6-[4-(6-methylpyridin-2-yl)piperazin-1-yl]-6-oxohexyl]prop-2-enamide] was 100 to 1000 nM. The value for `C=CC(=O)NCCCC[C@H](NC(=O)OCc1ccccc1Cl)C(=O)O` [(2S)-2-({[(2-chlorophenyl)methoxy]carbonyl}amino)-6-(prop-2-enamido)hexanoic acid] was 1000 to 100000 nM; that for `C=CC(=O)NCCCC[C@H](NC(=O)OCc1ccccc1)C(=O)N1CCN(c2nccs2)CC1` [benzyl N-[(2S)-1-oxo-6-(prop-2-enamido)-1-[4-(1,3-thiazol-2-yl)piperazin-1-yl]hexan-2-yl]carbamate] was 100 to 1000 nM; that for `C=CC(=O)NCCCC[C@H](NC(=O)OCc1ccccc1)C(=O)N1CCN(C(=O)C23CC4CC(CC(C4)C2)C3)CC1` [benzyl N-[(2S)-1-[4-(adamantane-1-carbonyl)piperazin-1-yl]-1-oxo-6-(prop-2-enamido)hexan-2-yl]carbamate] was < 100 nM. Consider `C=CC(=O)NCCCC[C@H](NC(=O)OCc1cccc2ccccc12)C(=O)O` [(2S)-2-{[(naphthalen-1-ylmethoxy)carbonyl]amino}-6-(prop-2-enamido)hexanoic acid], for which the IC50 lay within 1000 to 100000 nM. The value for `C=CC(=O)NCCCC[C@H](NC(=O)OCc1ccccc1)C(=O)NC1C2CC3CC(C2)CC1C3` (stereo partly drawn) [benzyl N-[(1S)-1-[(adamantan-2-yl)carbamoyl]-5-(prop-2-enamido)pentyl]carbamate] was 1000 to 100000 nM.

In the case of `C=CC(=O)NCCCC[C@H](NC(=O)OC)C(=O)O` [(2S)-2-[(methoxycarbonyl)amino]-6-(prop-2-enamido)hexanoic acid], the IC50 fell in the range of 1000 to 100000 nM. The value for `C=CC(=O)NCCCC[C@H](NC(=O)c1ccc2ccccc2c1)C(=O)N1CCN(c2cccc(C)n2)CC1` [N-[(5S)-6-[4-(6-methylpyridin-2-yl)piperazin-1-yl]-5-(naphthalen-2-ylformamido)-6-oxohexyl]prop-2-enamide] was 1000 to 100000 nM; that for `C=CC(=O)NCCCC[C@H](NC(=O)OCc1ccccc1)C(=O)N1CCN(c2ccc(C(F)(F)F)cn2)CC1` [benzyl N-[(2S)-1-oxo-6-(prop-2-enamido)-1-{4-[5-(trifluoromethyl)pyridin-2-yl]piperazin-1-yl}hexan-2-yl]carbamate] was 100 to 1000 nM; that for `C=CC(=O)NCCCC[C@H](NC(=O)OCc1ccccc1)C(=O)O` [(2S)-2-{[(benzyloxy)carbonyl]amino}-6-(prop-2-enamido)hexanoic acid] was 1000 to 100000 nM. The value for `C=CC(=O)NCCCC[C@H](NC(=O)OCc1ccccc1)C(=O)N1CCC(c2ccccc2)CC1` [benzyl N-[(2S)-1-oxo-1-(4-phenylpiperidin-1-yl)-6-(prop-2-enamido)hexan-2-yl]carbamate] was < 100 nM. For `C=CC(=O)NCCCC[C@H](NC(=O)OCc1ccccc1)C(=O)N1CCC1` [benzyl N-[(2S)-1-(azetidin-1-yl)-1-oxo-6-(prop-2-enamido)hexan-2-yl]carbamate], the IC50 was in the range of 1000 to 100000 nM. The value for `C=CC(=O)NCCCC[C@H](NC(=O)OCc1ccccc1)C(=O)N(CC)CC` [benzyl N-[(1S)-1-(diethylcarbamoyl)-5-(prop-2-enamido)pentyl]carbamate] was 1000 to 100000 nM. The value for `C=CC(=O)NCCCC[C@H](NC(=O)OCc1ccc(C)cc1)C(=O)O` [(2S)-2-({[(4-methylphenyl)methoxy]carbonyl}amino)-6-(prop-2-enamido)hexanoic acid] was 1000 to 100000 nM; that for `C=CC(=O)N1CCC(CC(NC(=O)OC(C)(C)C)C(=O)O)CC1` (centres unmarked) [2-{[(tert-butoxy)carbonyl]amino}-3-[1-(prop-2-enoyl)piperidin-4-yl]propanoic acid] was 1000 to 100000 nM; that for `C=CC(=O)NCCCC[C@H](NC(=O)OCc1ccccc1)C(=O)N1CCN(c2cccc(C)n2)CC1` [benzyl N-[(2S)-1-[4-(6-methylpyridin-2-yl)piperazin-1-yl]-1-oxo-6-(prop-2-enamido)hexan-2-yl]carbamate] was < 100 nM. The value for `C=CC(=O)NCCCC[C@H](NC(=O)c1ccccc1)C(=O)N1CCN(c2cccc(C)n2)CC1` [N-[(5S)-6-[4-(6-methylpyridin-2-yl)piperazin-1-yl]-6-oxo-5-(phenylformamido)hexyl]prop-2-enamide] was 100 to 1000 nM. As to `C=CC(=O)NCCCC[C@H](NC(=O)OCc1ccccc1)C(=O)N1CCCCCC1` [benzyl N-[(2S)-1-(azepan-1-yl)-1-oxo-6-(prop-2-enamido)hexan-2-yl]carbamate], the IC50 fell in the range of 100 to 1000 nM. The value for `C=CC(=O)NCCCC[C@H](NC(=O)OCc1ccc([N+](=O)[O-])cc1)C(=O)O` [(2S)-2-({[(4-nitrophenyl)methoxy]carbonyl}amino)-6-(prop-2-enamido)hexanoic acid] was 1000 to 100000 nM; that for `C=CC(=O)NCCCC[C@H](NC(=O)OCc1ccccc1)C(=O)N(C)C` [benzyl N-[(1S)-1-(dimethylcarbamoyl)-5-(prop-2-enamido)pentyl]carbamate] was 1000 to 100000 nM. The value for `C=CC(=O)NCCCC[C@H](NC(=O)OCc1ccc(F)cc1Cl)C(=O)O` [(2S)-2-({[(2-chloro-4-fluorophenyl)methoxy]carbonyl}amino)-6-(prop-2-enamido)hexanoic acid] was 1000 to 100000 nM. In the case of `C=CC(=O)NCCCC[C@H](NC(=O)OCc1ccccc1)C(=O)N1CCCC1` [benzyl N-[(2S)-1-oxo-6-(prop-2-enamido)-1-(pyrrolidin-1-yl)hexan-2-yl]carbamate], the concentration for half-maximal inhibition (IC50) is 100 to 1000 nM.
